Patent US20110110923A1, “FISH ASSAY FOR EML4 AND ALK FUSION IN LUNG CANCER” (The Brigham and Women's Hospital, Inc., priority 2008, published 2011)
“Also recorded” adds a separate entry of the source.

How the values were obtained:
[1] = biological target: ALK kinase (Homo sapiens, UniProt Q9UM73); settings: initial studies, Li et al.; read-out: IC50 (ALK inhibitors); cited from earlier work
[2] = tested on: EML4-ALK fusion transformed Ba/F3 models; settings: original study describing the EML4-ALK fusion gene; cited from earlier work
[3] = tested on: PC-9 cell line (EGFR delE746_A750); test: MTS cell growth assay, PC-9; assay type: cell-based, human; settings: PC-9, 72 hours
Text: All experimental points were set up in six to twelve wells and all experiments were repeated at least three times. […] The curves were fitted using a non-linear regression model with a sigmoidal dose response.

[4] = tested on: Karpas 299 cells; settings: NPM-ALK positive lymphoma cells; cited from earlier work
[5] = tested on: Akt, STAT3 and ERK 1/2 phosphorylation in PC-9; test: Western blot of downstream signalling, PC-9; assay type: cell-based, human; settings: PC-9, 0.1 μM, 6 hours
Protocol: (§1) The supernatant was used for subsequent procedures. […] Immunoblotting was performed according to the antibody manufacturers' recommendations. […] Total ERK1/2 and phospho-ERK1/2 (pT185/pY187) antibodies were purchased from Biosource International (Camarillo, Calif.).

[6] = in vivo; cited from earlier work
[7] = tested on: H3122 cell line (EML4-ALK variant 1); test: MTS cell growth assay, H3122; assay type: cell-based; settings: Homo sapiens, NCI-H3122, read-out: IC50, growth inhibition, H3122, 72 hours
Protocol: (§2) Growth and inhibition of growth was assessed by methoxy-tetrazolium salt (MTS) assay. This assay, a colorimetric method for determining the number of viable cells, is based on the bioreduction of 3-(4,5-dimethylthiazol-2-yl)-5-(3-carboxymethoxyphenyl)-2-(4-sulfophenyl)-2H-tetrazolium (MTS) by cells to a formazan product that is soluble in cell culture medium, can be detected spectrophotometrically. NSCLC cells were exposed to treatment for 72 hours and the number of cells used per experiment determined empirically. All experimental points were set up in six to twelve wells and all experiments were repeated at least three times. […] The curves were fitted using a non-linear regression model with a sigmoidal dose response.

[8] = tested on: DFCI032 cell line (EML4-ALK variant 1); test: MTS cell growth assay, DFCI032; assay type: cell-based; settings: Homo sapiens, read-out: IC50, growth inhibition, DFCI032, 72 hours
Protocol: as §2

[9] = tested on: Akt, STAT3 and ERK 1/2 phosphorylation in H2228; test: Western blot of downstream signalling, H2228; assay type: cell-based, human; settings: H2228, 0.1 μM, 6 hours
Protocol: as §1

[10] = tested on: H3122 cell line; test: Apoptosis by FACS (sub G1) and Western blot for cleaved PARP, H3122; assay type: cell-based, human; settings: H3122, 0.1 μM, 72 h
Protocol: as §1
Cells were collected and fixed in 40% ethanol for at least 1 hour (or until ready for the experiment) at 4° C. The fixed cells were treated with 0.5 mL of […] RNase A for 45 minutes at 37° C. and stained with […] propidium iodide (in 38 mM sodium citrate) for at least 30 minutes at room temperature in the dark. The stained cells were then analyzed for DNA content in a Becton Dickinson fluorescence-activated cell sorter using both ModFit (Verity Software House, Topsham, Me.) and CellQuest (Becton Dickinson, San Jose, Calif.) programs.

[11] = tested on: Akt, STAT3 and ERK 1/2 phosphorylation in H3122; test: Western blot of downstream signalling, H3122; assay type: cell-based, human; settings: H3122, 0.1 μM, 6 hours
Protocol: as §1

[12] = tested on: A549 cell line (K-Ras G12S); test: MTS cell growth assay, A549; assay type: cell-based, human; settings: A549, 72 hours
Protocol: as §2

[13] = tested on: Akt, STAT3 and ERK 1/2 phosphorylation in DFCI032; test: Western blot of downstream signalling, DFCI032; assay type: cell-based, human; settings: DFCI032, 0.1 μM, 6 hours
Protocol: as §1

[14] = tested on: H2228 cell line (EML4-ALK variant 3); test: MTS cell growth assay, H2228; assay type: cell-based; settings: Homo sapiens, NCI-H2228, read-out: IC50, growth inhibition, H2228, 72 hours
Protocol: as §2

[15] = tested on: other cell lines (H2228, DFCI032, PC-9, A549); test: Growth arrest / apoptosis in the other NSCLC cell lines; assay type: cell-based, human; settings: other cell lines than H3122
Protocol: as §2, §1
Cells were collected and fixed in 40% ethanol for at least 1 hour (or until ready for the experiment) at 4° C. […] The stained cells were then analyzed for DNA content in a Becton Dickinson fluorescence-activated cell sorter using both ModFit (Verity Software House, Topsham, Me.) and CellQuest (Becton Dickinson, San Jose, Calif.) programs.

Chain of ALK kinase (Q9UM73 19-1620): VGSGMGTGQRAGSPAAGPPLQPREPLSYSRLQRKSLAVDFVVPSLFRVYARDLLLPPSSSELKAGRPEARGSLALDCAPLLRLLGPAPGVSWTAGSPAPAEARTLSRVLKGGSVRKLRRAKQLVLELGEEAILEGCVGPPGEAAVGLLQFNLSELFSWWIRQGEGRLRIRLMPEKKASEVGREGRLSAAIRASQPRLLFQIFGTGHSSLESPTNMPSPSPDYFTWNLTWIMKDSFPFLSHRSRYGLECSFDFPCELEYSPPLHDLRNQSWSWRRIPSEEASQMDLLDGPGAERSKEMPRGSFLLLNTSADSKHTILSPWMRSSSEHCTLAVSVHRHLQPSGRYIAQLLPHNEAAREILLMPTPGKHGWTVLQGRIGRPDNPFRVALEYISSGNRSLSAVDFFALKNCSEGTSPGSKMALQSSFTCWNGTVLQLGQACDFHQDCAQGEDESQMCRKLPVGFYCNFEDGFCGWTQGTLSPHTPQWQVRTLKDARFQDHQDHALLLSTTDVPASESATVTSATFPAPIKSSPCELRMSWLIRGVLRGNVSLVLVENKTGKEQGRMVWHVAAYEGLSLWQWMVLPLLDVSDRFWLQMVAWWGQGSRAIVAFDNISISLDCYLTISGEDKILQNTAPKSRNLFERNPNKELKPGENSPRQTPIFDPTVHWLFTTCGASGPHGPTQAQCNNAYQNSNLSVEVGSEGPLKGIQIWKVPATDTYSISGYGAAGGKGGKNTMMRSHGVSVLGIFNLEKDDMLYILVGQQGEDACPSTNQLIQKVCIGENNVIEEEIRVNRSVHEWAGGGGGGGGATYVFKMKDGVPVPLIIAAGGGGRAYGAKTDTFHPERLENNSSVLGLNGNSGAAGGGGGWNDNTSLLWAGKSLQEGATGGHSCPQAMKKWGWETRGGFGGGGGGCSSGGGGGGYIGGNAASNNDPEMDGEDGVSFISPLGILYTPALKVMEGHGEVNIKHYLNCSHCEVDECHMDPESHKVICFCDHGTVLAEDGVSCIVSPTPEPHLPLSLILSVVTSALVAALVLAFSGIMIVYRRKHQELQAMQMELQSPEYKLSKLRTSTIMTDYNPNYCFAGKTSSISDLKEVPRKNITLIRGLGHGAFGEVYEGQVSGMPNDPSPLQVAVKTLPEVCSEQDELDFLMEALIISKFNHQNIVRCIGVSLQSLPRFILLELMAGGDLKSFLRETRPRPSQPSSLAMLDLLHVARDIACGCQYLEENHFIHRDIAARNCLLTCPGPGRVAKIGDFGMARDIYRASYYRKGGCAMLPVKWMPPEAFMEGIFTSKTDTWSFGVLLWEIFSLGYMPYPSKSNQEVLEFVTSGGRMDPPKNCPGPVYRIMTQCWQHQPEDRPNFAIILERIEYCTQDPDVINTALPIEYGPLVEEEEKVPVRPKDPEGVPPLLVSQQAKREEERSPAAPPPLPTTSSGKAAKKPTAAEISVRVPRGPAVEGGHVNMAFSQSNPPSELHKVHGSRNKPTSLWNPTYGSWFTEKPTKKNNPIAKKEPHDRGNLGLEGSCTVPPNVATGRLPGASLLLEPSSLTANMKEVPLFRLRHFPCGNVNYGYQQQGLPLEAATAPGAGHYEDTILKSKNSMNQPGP

SMILES | IC50 [1] [µM] | growth inhibition [2] | growth: resistance to the inhibitor [3] | IC50 [4] [µM] | Akt, STAT3 and ERK 1/2 phosphorylation [5] | bioavailability [6] | IC50 [7] [µM] | IC50 [8] [µM] | Akt, STAT3 and ERK 1/2 phosphorylation [9] | 89 kDa cleaved PARP product (Western blot) [10] | apoptosis (FACS sub G1 fraction / cleaved PARP) [10] | apoptosis (FACS sub G1 fraction / cleaved PARP) ([10]; listed as TAE-684) | Akt, STAT3 and ERK 1/2 phosphorylation [11] | growth: resistance to the inhibitor [12] | Akt, STAT3 and ERK 1/2 phosphorylation [13] | IC50 [14] [µM] | growth arrest or apoptosis [15]
COc1cc2ncnc(Nc3ccc(O)c(Br)c3)c2cc1OC [WHI-P154] | ~5 | growth inhibition |  |  |  |  |  |  |  |  |  |  |  |  |  |  | 
COc1cc(N2CCC(N3CCN(C)CC3)CC2)ccc1Nc1ncc(Cl)c(Nc2ccccc2S(=O)(=O)C(C)C)n1 [NVP-TAE684] |  |  | resistant | 0.002 to 0.005 | unchanged | good | ~0.01 | 1 to 10 | some but not complete inhibition; also recorded: only partial inhibition; also recorded: decrease | observed | significant apoptosis | Significant apoptosis | substantial inhibition; also recorded: decrease | resistant | unchanged; also recorded: no inhibition | 1 to 10 | No growth arrest or apoptosis
C[C@@H](Oc1cc(-c2cnn(C3CCNCC3)c2)cnc1N)c1c(Cl)ccc(F)c1Cl [PF-02341066] |  |  |  | 0.026 |  | good |  |  |  |  |  |  |  |  |  |  | 
